Assay results from patent US20200270294A1, “IMMUNOSTIMULATORY ADJUVANTS AND USES THEREOF” (TURUN YLIOPISTO, priority 2015, published 2020).

Legend:
B16 melanoma cells = assay: In vivo model of cancer immunotherapy: B16 melanoma tumor growth in mice; set-up: species or system C57BL/6 mice
Procedure: (§1) Wilcoxon's Signed Rank test was used to test statistical significance in PBMC experiments. Single mice groups were compared by the nonparametric Mann-Whitney U-test using GraphPad Prism software (v.5, GraphPad Software Inc., La Jolla, Calif., USA). Data are expressed as mean±SEM and P-values of <0.05 are considered statistically significant.
3*10^6 B16 melanoma cells in 100 μl PBS were injected s.c. into the right flank of seven-week-old female C57BL/6 mice. Compound 3 was given i.p. 50 μg/injection in 200 μl PBS five times at 3-day intervals, starting on day 0. Each treatment group contained 10 mice. Tumor volumes were calculated using the formula 0.5*length*width^2. Animals were sacrificed when tumor volumes reached 800 mm^3. Animal experimentations were made following the procedures accepted by Eteli-Suomen Aluehallintavirasto (permission ESAVI/480/Apr. 10.2007/2016).

[1] = tested on: production of pro-inflammatory cytokine TNF in PBMC; assay: TNF production in PBMC cultures stimulated with Bet v; assay type: cell-based, human; conditions: 100 μg/ml (also printed 100 l/ml), Bet v 50 μg/ml, 72 h
Description: (§2) During pollen season, 14 adult birch allergic subjects with allergic rhinoconjunctivitis (12 females and two males) were enrolled in the study (mean age 42.5 years, SD 12.4 years; mean birch-specific IgE (Immunocap, Thermo Fisher Scientific Phadia, Uppsala, Sweden) 36.1 kU/1, SD 31.5 kU/1). They were selected for the study from an earlier cohort based on good birch induced IL-4 responses during pollen season. All samples were taken after informed consent. The study was approved by the local ethics committee.
Peripheral blood mononuclear cells (PBMC) were isolated by Ficoll-Paque density gradient centrifugation (Ficoll-Paque PLUS, GE Healthcare BioSciences AB, Uppsala, Sweden) from heparinized blood samples from study subjects during pollen season. […]
The cytokines IL-4 and TNF in supernatants were measured with highsensitivity human cytokine Lincoplex kits (LINCO Research, St. Charles, Mo., USA). […]
Wilcoxon's Signed Rank test was used to test statistical significance in PBMC experiments. […] Data are expressed as mean±SEM and P-values of <0.05 are considered statistically significant.

[2] = tested on: birch-induced production of IL-4 in PBMC; assay: Birch allergen (Bet v) induced IL-4 production in PBMC cultures of birch allergic subjects; assay type: cell-based, human; conditions: for suppression of birch-induced production of IL-4: Bet v 50 μg/ml, 72 h; for in vitro activity (PBMC model): screen of oligovalent β-(1→2) mannosides
Description: as §2
Peripheral blood mononuclear cells (PBMC) were isolated by Ficoll-Paque density gradient centrifugation (Ficoll-Paque PLUS, GE Healthcare BioSciences AB, Uppsala, Sweden) from heparinized blood samples from study subjects during pollen season. The PBMC were washed twice with Hanks' balanced salt solution (HBSS) buffered with NaHCO3 (pH 7.4) and resuspended in RPMI-1640 culture medium (Invitrogen Co., Carlsbad, Calif., USA) supplemented with 5% autologous serum, 2.5 mM L-glutamine (Sigma-Aldrich Co., St. Louis, Mo.) and 100 μg/ml gentamycin sulfate (Biological Industries Ltd., Kibbutz Beit Haemek, Israel) and applied on 48-well flat-bottomed cell culture plates (Costar, Corning Inc., New York, United States) at a density of […]. Cells were co-cultured in the presence of birch allergen (50 μg/ml, Betula verrucosa, Bet v, Aquagen, ALK-Abellò A/S, Horsholm, Denmark) and compounds 1, 2, 3 and MPL with concentrations 1, 10 and 100 μg/ml and adjuvant CpG-ODN with concentrations 2, 20 and 200 μg/ml to achieve equal molarities. Medium alone served as an unstimulated control. All incubations were performed at +37° C. in humidified atmosphere with 5% CO2. Supernatants from cultures performed in duplicate were collected 72 h after beginning of the stimulation and stored at −70° C.
The cytokines IL-4 and TNF in supernatants were measured with highsensitivity human cytokine Lincoplex kits (LINCO Research, St. Charles, Mo., USA). The assays were performed in accordance with the manufacturer's protocol by employing Luminex technology.
as §1

[3] = 10 μg/ml adjuvant, PBMC of 14 birch allergic patients
[4] = 100 g/ml or 100 l/ml as printed (highest concentration, b131: 100 μg/ml), PBMC

## CC(=O)OCC1O[C@@H](OC2C(OC(C)=O)[C@H](OC(C)=O)C(COC(C)=O)O[C@@H]2OCCOCCOCCn2cc(COCC(COCc3cn(CCOCCOCCO[C@H]4OC(COC(C)=O)[C@@H](OC(C)=O)C(OC(C)=O)C4O[C@@H]4OC(COC(C)=O)[C@@H](OC(C)=O)C(OC(C)=O)C4OC(C)=O)nn3)OCc3cn(CCOCCOCCO[C@H]4OC(COC(C)=O)[C@@H](OC(C)=O)C(OC(C)=O)C4O[C@@H]4OC(COC(C)=O)[C@@H](OC(C)=O)C(OC(C)=O)C4OC(C)=O)nn3)nn2)C(OC(C)=O)C(OC(C)=O)[C@@H]1OC(C)=O (stereo partly drawn) [compound 3, 1,2,3-tris(1-{2-[2-(2-[O-(2,3,4,6-tetra-O-acetyl-β-D-mannopyranosyl)-(1→2)-3,4,6-tri-O-acetyl-α-D-mannopyranosyloxy]ethoxy)-ethoxy]ethyl}-4-methyloxy-1,2,3-triazolyl)propane]
B16 melanoma cells; Day 9, i.p. 50 μg/injection five times at 3-day intervals
  tumor volume as compared to control mice: statistically significantly smaller
B16 melanoma cells; i.p. 50 μg/injection five times at 3-day intervals, starting on day 0
  start of tumor growth as compared to control: started later
B16 melanoma cells; i.p. 50 μg/injection five times at 3-day intervals, until Day 9
  tumor growth until Day 9 as compared to control: slower
[1]
  production of pro-inflammatory cytokine TNF: Significantly increased production
[2]; [3]
  suppression of birch-induced production of IL-4: significant suppression
[2]; [4]
  suppression of birch-induced production of IL-4: significant suppression
[2]
  in vitro activity (PBMC model): promising in vitro activities

## CC(=O)OC[C@H]1O[C@@H](O[C@@H]2[C@@H](OCCCn3cc(COCC(COCc4cn(CCCO[C@H]5O[C@H](COC(C)=O)[C@@H](OC(C)=O)[C@H](OC(C)=O)[C@@H]5O[C@@H]5O[C@H](COC(C)=O)[C@@H](OC(C)=O)[C@H](OC(C)=O)[C@@H]5OC(C)=O)nn4)OCc4cn(CCCO[C@H]5O[C@H](COC(C)=O)[C@@H](OC(C)=O)[C@H](OC(C)=O)[C@@H]5O[C@@H]5O[C@H](COC(C)=O)[C@@H](OC(C)=O)[C@H](OC(C)=O)[C@@H]5OC(C)=O)nn4)nn3)O[C@H](COC(C)=O)[C@@H](OC(C)=O)[C@@H]2OC(C)=O)[C@@H](OC(C)=O)[C@@H](OC(C)=O)[C@@H]1OC(C)=O (stereo partly drawn) [compound 2, 1,2,3-tris[1-(3-{O-(2,3,4,6-tetra-O-acetyl-β-D-mannopyranosyl)-(1-+2)-3,4,6-tri-O-acetyl-α-D-mannopyranosyloxy}propyl)-4-methyloxy-1,2,3-triazolyl]propane]
[1]
  production of pro-inflammatory cytokine TNF: Significantly increased production
[2]; [3]
  suppression of birch-induced production of IL-4: significant suppression
[2]; [4]
  suppression of birch-induced production of IL-4: significant suppression
[2]
  in vitro activity (PBMC model): promising in vitro activities

## CC(=O)OCC1O[C@H](OCCn2cc(COCC(COCc3cn(CCO[C@H]4OC(COC(C)=O)[C@@H](OC(C)=O)[C@H](OC(C)=O)C4O[C@@H]4OC(COC(C)=O)[C@@H](OC(C)=O)[C@H](OC(C)=O)C4OC(C)=O)nn3)OCc3cn(CCO[C@H]4OC(COC(C)=O)[C@@H](OC(C)=O)[C@H](OC(C)=O)C4O[C@@H]4OC(COC(C)=O)[C@@H](OC(C)=O)[C@H](OC(C)=O)C4OC(C)=O)nn3)nn2)C(O[C@@H]2OC(COC(C)=O)[C@@H](OC(C)=O)[C@H](OC(C)=O)C2OC(C)=O)[C@@H](OC(C)=O)[C@@H]1OC(C)=O (stereo partly drawn) [compound 1, 1,2,3-tris[1-(3-{0-(2,3,4,6-tetra-O-acetyl-β-D-mannopyranosyl)-(1→2)-3,4,6-tri-O-acetyl-α-D-mannopyranosyloxy}ethyl)-4-methyloxy-1,2,3-triazolyl]propane]
[2]
  in vitro activity (PBMC model): promising in vitro activities
